Test results: patent US9193731B2, “Antimicrobial compounds and methods of making and using the same” (Melinta Therapeutics, Inc., priority 2009, dated 2015)

What follows are compounds tested on Escherichia coli strain ATCC25922 (assay: standard microdilution assay to determine minimum inhibitory concentrations (MICs)). Conditions: Escherichia coli strain ATCC25922, microdilution.
Format: cell-based
Procedure, shortened: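 E. coli strain ATCC25922 tested per CLSI microdilution methodology (about 100 microliters per well) to find minimum inhibitory concentrations. Activity scored categorically at a 16 micrograms/ml threshold.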

Row | SMILES | E. coli ATCC25922 MIC
1 | N=C(N)NCCCNCc1ccc(-n2cc3cc(-c4cccc(S(=O)(=O)N(CC5CC5)C5CCNCC5)c4)[nH]c3nc2=O)cc1 [Compound 1018] | + (a “+” indicates that the compound has an MIC value of 16 micrograms/ml or less)
2 | CN1CCN(CCCN(C2CCNCC2)S(=O)(=O)c2ccc(-c3cc4cn(-c5ccc(CNCCCNC(=N)N)cc5)c(=O)nc4[nH]3)cc2)CC1 [Compound 899] | + (a “+” indicates that the compound has an MIC value of 16 micrograms/ml or less)
3 | CC1CN(C(=O)c2ccc(-c3cn4cc(-c5ccc(CNCCCN)cc5)c(=O)nc4[nH]3)cc2)CC(C)N1 (centres unmarked) [Compound 819] | + (a “+” indicates that the compound has an MIC value of 16 micrograms/ml or less)
4 | N=C(N)NCCCNCc1ccc(-n2cc3cc(-c4cc(C(=O)Nc5cccc(C(F)(F)F)c5)cc(N5CCNCC5)c4)[nH]c3nc2=O)cc1 [Compound 1069] | + (a “+” indicates that the compound has an MIC value of 16 micrograms/ml or less)
5 | N=C(N)NCCCNCc1ccc(-n2cc3cc(-c4cc(OCC(F)CN)cc(-c5ccc([N+](=O)[O-])cc5)c4)[nH]c3nc2=O)cc1 (centres unmarked) [Compound 2027a] | + (a “+” indicates that the compound has an MIC value of 16 micrograms/ml or less)
6 | N=C(N)NCCCNCc1ccc(-n2cc3cc(-c4ccc(C(NC5CNC5)C(F)(F)F)cc4)[nH]c3nc2=O)cc1 (centres unmarked) [Compound 1431] | + (a “+” indicates that the compound has an MIC value of 16 micrograms/ml or less)
7 | N=C(N)NCCCNCc1ccc(-n2cc3cc(-c4ccc(C(NC5CN(C(=N)N)C5)C(F)F)cc4)[nH]c3nc2=O)cc1 (centres unmarked) [Compound 2006a] | + (a “+” indicates that the compound has an MIC value of 16 micrograms/ml or less)
8 | N=C(N)NCCCNCc1ccc(-n2cc3cc(-c4ccc(S(=O)(=O)N(Cc5ccc6nonc6c5)C5CCNCC5)cc4)[nH]c3nc2=O)cc1 [Compound 769] | + (a “+” indicates that the compound has an MIC value of 16 micrograms/ml or less)
9 | N=C(N)NCCCNCc1ccc(-n2cc3cc(-c4cccc(SCCN)c4)[nH]c3nc2=O)cc1 [Compound 1451] | + (a “+” indicates that the compound has an MIC value of 16 micrograms/ml or less)
10 | CC(C)(CN)COc1cccc(-c2cc3cn(-c4ccc(CNCCCNC(=N)N)cc4)c(=O)nc3[nH]2)c1 [Compound 1327] | + (a “+” indicates that the compound has an MIC value of 16 micrograms/ml or less)
11 | N=C(N)NCCCNCc1ccc(-n2cc3cc(-c4cccc(S(=O)(=O)N(CCCN5CCCCC5)C5CCNCC5)c4)[nH]c3nc2=O)cc1 [Compound 1027] | + (a “+” indicates that the compound has an MIC value of 16 micrograms/ml or less)
12 | N=C(N)NCCCNCc1ccc(-n2cc3cc(CCNC4CNC4)[nH]c3nc2=O)cc1 [Compound 1398] | + (a “+” indicates that the compound has an MIC value of 16 micrograms/ml or less)
13 | CCOC(=O)C1(CN(C2CCNCC2)S(=O)(=O)c2ccc(-c3cc4cn(-c5ccc(CNCCCNC(=N)N)cc5)c(=O)nc4[nH]3)cc2)CC1 [Compound 878] | + (a “+” indicates that the compound has an MIC value of 16 micrograms/ml or less)
14 | CCNCCc1cc(OCC(F)CN)cc(-c2cc3cn(-c4ccc(CNCCCNC(=N)N)cc4)c(=O)nc3[nH]2)c1 (centres unmarked) [Compound 2033a] | + (a “+” indicates that the compound has an MIC value of 16 micrograms/ml or less)
15 | CC(=O)NCCCS(=O)(=O)c1ccc(-c2cc3cn(-c4ccc(CNCCCNC(=N)N)cc4)c(=O)nc3[nH]2)cc1 [Compound 1277] | − (a “−” indicates that the compound has an MIC value greater than 16 micrograms/ml)
16 | NC(N)=NCCCNCc1ccc(-n2cc3cc(-c4cccc(S(=O)(=O)N(CCn5cccc5)C5CCNCC5)c4)[nH]c3nc2=O)cc1 [Compound 1227] | + (a “+” indicates that the compound has an MIC value of 16 micrograms/ml or less)
17 | NCc1ccc(-n2cc3cc(-c4ccc(S(=O)(=O)N(CC5COc6ccccc6O5)C5CCNCC5)cc4)[nH]c3nc2=O)cc1 (centres unmarked) [Compound 985] | − (a “−” indicates that the compound has an MIC value greater than 16 micrograms/ml)
18 | N=C(N)NCCCNCc1ccc(-n2cc3cc(-c4ccc(S(=O)(=O)N5CC(N)C5)cc4)[nH]c3nc2=O)cc1 [Compound 1459] | + (a “+” indicates that the compound has an MIC value of 16 micrograms/ml or less)
19 | N=C(N)NCCCNCc1ccc(-n2cc3cc(-c4ccc(S(=O)(=O)N(Cc5csc(-c6ccc(C(F)(F)F)cc6)n5)C5CCNCC5)cc4)[nH]c3nc2=O)cc1 [Compound 786] | + (a “+” indicates that the compound has an MIC value of 16 micrograms/ml or less)
20 | N=C(N)NCCCN1CC=C(n2cc3cc(-c4ccc(S(=O)(=O)N(CCCC5CCCC5)C5CCNCC5)cc4)[nH]c3nc2=O)CC1 [Compound 967] | + (a “+” indicates that the compound has an MIC value of 16 micrograms/ml or less)
21 | N=C(N)NCCCNCCCCCn1cc2cc(-c3ccc(S(=O)(=O)NC4CCNCC4)cc3)[nH]c2nc1=O [Compound 924] | + (a “+” indicates that the compound has an MIC value of 16 micrograms/ml or less)
22 | N=C(N)N[C@@H]1CCN(Cc2ccc(-n3cc4cc(-c5ccc(S(=O)(=O)N(CC6CCOCC6)C6CCNCC6)cc5)[nH]c4nc3=O)cc2)C1 [Compound 1206] | − (a “−” indicates that the compound has an MIC value greater than 16 micrograms/ml)
23 | N=C(N)NCCCCOc1ccc(-c2cn3cc(-c4ccc(C(=O)NC5CCN(C(=N)N)CC5)cc4)[nH]c3nc2=O)cc1 [Compound 848] | + (a “+” indicates that the compound has an MIC value of 16 micrograms/ml or less)
24 | N=C(N)NCCCNCc1ccc(-n2cc3cc(-c4cccc(S(=O)(=O)N(Cc5ccc6nonc6c5)C5CCNCC5)c4)[nH]c3nc2=O)cc1 [Compound 1076] | + (a “+” indicates that the compound has an MIC value of 16 micrograms/ml or less)
25 | N=C(N)NCCCNCc1ccc(-c2cn3cc(C(=O)Nc4cccc(OC(F)(F)F)c4)[nH]c3nc2=O)cc1 [Compound 974] | − (a “−” indicates that the compound has an MIC value greater than 16 micrograms/ml)
26 | CN(Cc1ccccc1)C(=O)c1cc(-c2cc3cn(-c4ccc(CNCCCNC(=N)N)cc4)c(=O)nc3[nH]2)cc(N2CCNCC2)c1 [Compound 989] | + (a “+” indicates that the compound has an MIC value of 16 micrograms/ml or less)
27 | NCCCNCc1ccc(-n2cc3cc(-c4cc(C(=O)N(CCO)CCO)cc(N5CCNCC5)c4)[nH]c3nc2=O)cc1 [Compound 894] | − (a “−” indicates that the compound has an MIC value greater than 16 micrograms/ml)
28 | CN(Cc1cccnc1)C(=O)c1cc(-c2cc3cn(-c4ccc(CNCCCNC(=N)N)cc4)c(=O)nc3[nH]2)cc(N2CCNCC2)c1 [Compound 951] | − (a “−” indicates that the compound has an MIC value greater than 16 micrograms/ml)
29 | N=C(N)NCCCNCc1ccc(-n2cc3cc(-c4cc(OC(F)(F)F)cc(S(=O)(=O)CCCN)c4)[nH]c3nc2=O)cc1 [Compound 2052a] | + (a “+” indicates that the compound has an MIC value of 16 micrograms/ml or less)

Same assay, conditions: Escherichia coli, ATCC25922, Escherichia coli strain ATCC25922, microdilution; read-out: E. coli ATCC25922 MIC

Row | MIC | SMILES
30 | < 16 µg/mL | CN(C)C(=O)c1cc(-c2cc3cn(-c4ccc(CNCCCN)cc4)c(=O)nc3[nH]2)cc(N2CCNCC2)c1 [Compound 796]
31 | > 16 µg/mL | NCc1ccc(-n2cc3cc(-c4cccc(OCC(F)(F)CN)c4)[nH]c3nc2=O)cc1 [Compound 1436]
32 | > 16 µg/mL | NCc1ccc(-n2cc3cc(-c4cccc(OCCCN5CCNCC5)c4)[nH]c3nc2=O)cc1 [Compound 1107]
33 | > 16 µg/mL | NCCCNCc1ccc(-n2cc3cc(-c4ccc(S(=O)(=O)N(CC5CCOCC5)C5CCCNC5)cc4)[nH]c3nc2=O)cc1 (centres unmarked) [Compound 830]
34 | < 16 µg/mL | Cn1cncc1-c1cc2cn(-c3ccc(CN(CCCN)CCCN)cc3)c(=O)nc2[nH]1 [Compound 184]
35 | > 16 µg/mL | CN(Cc1ccccc1)Cc1cc2cn(-c3ccc(CNCCCNC(=N)N)cc3)c(=O)nc2[nH]1 [Compound 906]
36 | > 16 µg/mL | N=C(N)NCCCNCc1ccc(-n2cc3cc(C[C@@H](CO)NC(=O)c4ccccc4)[nH]c3nc2=O)cc1 [Compound 1231]
37 | < 16 µg/mL | CC(=O)NCCN1CCCC(c2cc3cn(-c4ccc(CNCCCNC(=N)N)cc4)c(=O)nc3[nH]2)C1 (centres unmarked) [Compound 2018a]
38 | > 16 µg/mL | NCc1ccc(-n2cc3cc(-c4ccccc4OCCCO)[nH]c3nc2=O)cc1 [Compound 1105]
39 | < 16 µg/mL | NCCCNCc1ccc(-n2cc3cc(-c4ccc(S(=O)(=O)NC5CCNCC5)cc4)[nH]c3nc2=O)cc1 [Compound 852]
40 | < 16 µg/mL | N=C(N)NCCCNCc1ccc(-n2cc3cc(CCS(=O)(=O)CCN)[nH]c3nc2=O)cc1 [Compound 1189]
41 | > 16 µg/mL | N=C(N)NCCCNCc1ccc(-c2cn3cc(-c4ccc(C(=O)N5CCN(c6ccc(F)cc6)CC5)cc4)[nH]c3nc2=O)cc1 [Compound 670]
42 | < 16 µg/mL | N=C(N)NCCCNCc1ccc(-n2cc3cc(-c4cccc(OCCCN)c4)[nH]c3nc2=O)cc1F [Compound 1263]
43 | > 16 µg/mL | N=C(N)NCCCOCc1ccc(-c2cn3cc(-c4ccc(Br)cc4)[nH]c3nc2=O)cc1 [Compound 901]
44 | < 16 µg/mL | NCCCNCc1ccc(-n2cc3cc(-c4ccc(C[C@H](N)CO)cc4)[nH]c3nc2=O)cc1 [Compound 867]
45 | > 16 µg/mL | NCCCNCc1ccc(-c2cn3cc(-c4ccc(F)cc4)[nH]c3nc2=O)cc1 [Compound 506]
46 | > 16 µg/mL | NCc1ccc(-n2cc3cc(-c4ccc(S(=O)(=O)N(CCCC5CCCC5)C5CCNCC5)cc4)[nH]c3nc2=O)cc1 [Compound 946]
47 | < 16 µg/mL | NCCCNCc1ccc(-c2cn3cc(-c4ccc(C(=O)NC5CCNCC5)cc4)[nH]c3nc2=O)cc1 [Compound 648]
48 | > 16 µg/mL | NCCCCN1CCC(n2cc3c(nc2=O)[nH]c2ccccc23)C1 (centres unmarked) [Compound 542]
49 | < 16 µg/mL | N=C(N)NCCCN(CCCN)Cc1ccc(-c2cn3cc(-c4ccc(Br)cc4)[nH]c3nc2=O)cc1 [Compound 640]
50 | > 16 µg/mL | COC(=O)C(N)Cc1cc2cn(-c3ccc(CN(CCCN)CCCN)cc3)c(=O)nc2[nH]1 (centres unmarked) [Compound 169]
